Key:
[1] = system: isolated gastric fundic gland (histamine-stimulated acid secretion); assay: CAP: Acid Secretion Inhibition Test In Vitro ([14C]-aminopyrine uptake); assay type: cell-based, male Japanese White rabbit; conditions: Oryctolagus cuniculus, 40 min, final concentration 10^-5 M, histamine 10^-5 M, 37° C., read-out: CAP: acid secretion inhibitory rate
Procedure: CAP: Acid Secretion Inhibition Test In Vitro
The acid secretion inhibitory activity in a cell level is studied. It can also be used for studying the mechanism of the effect. […]
ii-a) Preparation of isolated gastric fundus gland suspension
First, an isolated gastric fundic gland sample was prepared. Namely, a male Japanese White rabbit (2.5 to 3 kg) was anesthetized to death with Nembutal™ and then the abdomen was incised. Immediately thereafter, the stomach was removed and, after its pyloric and cardiac antrum were severed, incised along its greater curvature into two sheets. […]
Into 70 ml of the nutrient solution containing 1 mg/ml of collagenase, minced mucosal pieces were dispersed and intensely stirred in a conical flask with a stirrer at 37° C. for 40 to 60 minutes. During this period, 100% O2 was sprayed on the nutrient solution surface and the pH was appropriately measured such that it was immediately adjusted to pH 7.4, when the value was therebelow, with a base. […] The number of cells was counted under microscope and adjusted to 1.6×10^6 cells/ml. […]
Then, [^14 C]-aminopyrine uptake test was performed. […] The gland pellet was completely dried as the tube with its lid being opened was kept for one night in a drying oven at 80° C. and then the lid was closed and the weight was determined at room temperature. […]

[2] = system: stress ulcer formation; assay: WIS: Restraint and Water Immersion Stress-Induced Ulcer Inhibition Test; assay type: in vivo, male Crj:SD or Slc:SD rats; conditions: 100 mg/kg oral, 10 min before 7 h restraint and water immersion (21° C.), SD rats
Procedure: WIS: Restraint and Water Immersion Stress-Induced Ulcer Inhibition Test
The degree of inhibition of the stress ulcer formation is tested.
Male Crj:SD or Slc:SD rats (6 to 7-week-old) were fasted overnight, but allowed free access to water. Each group has 5 to 8 of these rats. The sample compound was dissolved or suspended in an aqueous solution of 0.3% sodium carboxymethylcellulose or 0.05% Tween 80 and then was orally administered (100 mg/10 ml/kg). To a control group, the vehicle was administered. 10 minutes later, the rats were placed in a stress cage and immersed to the level of xipfoid process in a water bath (21° C.) for 7 hours. At the end of the stress, the rats were sacrificed by inhalation of ether or carbon dioxide. Then, the stomach of each was removed, inflated by injecting 10 ml of 5% formalin neutral buffer solution, and immersed in 1% formalin neutral buffer solution for 30 minutes or more to be fixed. The stomach was incised along the greater curvature and then the length of each erosion in the glandular portion was determined under dissecting microscope. The sum of the length of erosions per stomach was defined as ulcer index (UI).
The effect obtained when 100 mg/kg of the sample compound had been administered was expressed as ulcer formation inhibitory rate (%) as follows:
ulcer formation inhibitory rate (%)=(1-(UI in sample group/UI in control

[3] = MTT: Cell Damaging and Protecting Effect Test; assay type: cell-based, male Japanese White rabbit; conditions: rabbit, gastric corpus mucosa cells, final concentration 10^-4 M, 37° C., smaller value is better, read-out: MTT: cell damaging rate
Text: MTT: Cell Damaging and Protecting Effect Test
It is confirmed that there is no toxicity in cell level. Those having a toxicity in cell level are inappropriate as an anti-ulcer drug.
A male Japanese White rabbit (2.5 to 3 kg) was anesthetized to death by Nembutal™ and, immediately thereafter, its stomach was removed. The greater curvature of the stomach was incised so as to remove the stomach contents therefrom. After the mucosal surface was washed with HBSS (Hanks' Balanced Salt Solution), the stomach in ice-cooled HBSS was transferred to a laboratory. […]
The sample compound was dissolved in DMSO so as to attain a concentration of 10^-2 M and then diluted with HBSS containing 2% of Ultrocer G™ so as to attain a final concentration of 10^-4 M. To each group, which 8 wells were used for, 10 μl of MTT reagent was added immediately after 100 μl of the medium in each well was exchanged for same volume of the resulting solution of the sample compound. […] Then, the absorbance (OD: 570 to 630) was measured by a microplate reader. […]
The cell damaging or cell protecting effect of the sample compound at the final concentration of 10^-4 M was expressed as cell damaging rate (%) as follows:
cell damaging rate (%)=(1-(absorbance in sample group/absorbance in control […]

Compound | inhibition at 10 µM [1] [%] | WIS: ulcer formation inhibitory rate [2] [%] | cytotoxicity at 4 h, 100 µM [3] [%]
CC(C)Cc1cc(C(=O)NCCCOc2cccc(CN3CCCCC3)c2)ccc1OCc1ccc(F)cc1 [Example 1] | 104 | 55 | -3
CC(C)=CCC/C(C)=C/COc1ccc(C(=O)NCCCOc2cccc(CN3CCCCC3)c2)cc1 [Example 2] | 102 | 62 | 49

Source: patent US5891890A, “Benzamide derivatives, anti-ulcer drug, and antibacterial drug” (Shiseido Co., Ltd., priority 1997, dated 1999)
